This note sets out measurements from paper PMC12399242 (Acta Pharmaceutica Sinica. B, 2025).

Series [1] concerns the target T1, hERG channel (Homo sapiens, UniProt Q12809).
T1 construct: expressed in transfected cells; host or cells: CHO-hERG cells
Nature of the series: hERG inhibition assay (QPatch, CHO-hERG cells). It counts as cell-based. Particulars: automated QPatch, n = 3.
Protocol: CHO-hERG cells were cultured under the condition of 37 °C and 5% CO2. The culture medium was removed when the cell density grew to 60%–80%. Then, the cells were washed (PBS, 7 mL) and digested. After completion, culture medium (7 mL) was added for neutralization and then centrifuged to obtain the cells, which were subsequently resuspended into 5 mL of culture medium for automated Qpatch assays. The electrophysiology process was recorded using the QPatch instrument. The cells were clamped at an equilibrium potential of −80 mV. Voltage stimulation was conducted every 15 s, which concludes a 5 s, +40 mV depolarizing pulse and a 5 s, −50 mV repolarizing pulse. After 2 min of recording, extracellular fluid was given and recorded for 5 min. […] Each concentration was evaluated on 3 cells (n = 3).

The test system of series [2] is HIV-1 K103N. Nature of the series: Antiviral activity against HIV-1 mutant K103N in MT-4 cells. The class given is cell-based. Particulars: Human immunodeficiency virus 1, MT4, read-out: EC50 K103N.
Series [3] deals with T2, CYP2C9 (Homo sapiens, UniProt P11712).
T2 construct: An incubation system of human liver microsomes (20 μL, 1.5 mg/mL); from tissue; host or cells: human liver microsomes
The series is described as follows: CYP enzyme inhibition assay, CYP2C9. The class given is in vitro ADME. Particulars: human liver microsomes. As to the method:
An incubation system of human liver microsomes (20 μL, 1.5 mg/mL), 20 μL probe substrates, and 50 μL test compound in Tris (0.1 mol/L) was pre-incubated at 37 °C for 10 min, and then initiated by adding NADPH (10 μL, 10 mmol/L). […] Finally, the sample was centrifugated to obtain the supernatant for LC‒MS/MS analysis.

Series [4] addresses WT HIV-1 RT (Human immunodeficiency virus type 1 group M subtype B, UniProt P03366). The series is described as follows: Inhibition of WT HIV-1 RT polymerase activity.
Protocol: The anti-HIV-1 activity of A1–A24 and B1–B22 at the cellular or enzyme level were evaluated following our previously reported method[15].
Series [5] concerns HIV-1 L100I. Nature of the series: Antiviral activity against HIV-1 mutant L100I in MT-4 cells. Particulars: Human immunodeficiency virus 1, MT4, read-out: EC50 L100I. The class given is cell-based.
Series [6] in a line: Human liver microsomal stability assay. It counts as in vitro ADME. As to the method:
A mixed system of human liver microsomes (0.5 mg/mL), MgCl2 (3 mmol/L), tested compound (1.0 μmol/L), and NADPH (1.0 mmol/L) in PBS (0.1 mol/L) was incubated at 37 °C. After 0, 5, 15, 30, 45, and 60 min, aliquots were sampled respectively and then terminated by adding methanol containing internal standard. After centrifugation using a Thermo Scientific Fresco 17 microcentrifuge (4 °C, 3800 rpm, 15 min), the supernatant was removed for LC‒MS/MS analysis.

Series [7] concerns HIV-1 Y181C. The series is described as follows: Antiviral activity against HIV-1 mutant Y181C in MT-4 cells. The class given is cell-based.

SMILES strings stand for the structures.

T1 sequence (Q12809 whole entry): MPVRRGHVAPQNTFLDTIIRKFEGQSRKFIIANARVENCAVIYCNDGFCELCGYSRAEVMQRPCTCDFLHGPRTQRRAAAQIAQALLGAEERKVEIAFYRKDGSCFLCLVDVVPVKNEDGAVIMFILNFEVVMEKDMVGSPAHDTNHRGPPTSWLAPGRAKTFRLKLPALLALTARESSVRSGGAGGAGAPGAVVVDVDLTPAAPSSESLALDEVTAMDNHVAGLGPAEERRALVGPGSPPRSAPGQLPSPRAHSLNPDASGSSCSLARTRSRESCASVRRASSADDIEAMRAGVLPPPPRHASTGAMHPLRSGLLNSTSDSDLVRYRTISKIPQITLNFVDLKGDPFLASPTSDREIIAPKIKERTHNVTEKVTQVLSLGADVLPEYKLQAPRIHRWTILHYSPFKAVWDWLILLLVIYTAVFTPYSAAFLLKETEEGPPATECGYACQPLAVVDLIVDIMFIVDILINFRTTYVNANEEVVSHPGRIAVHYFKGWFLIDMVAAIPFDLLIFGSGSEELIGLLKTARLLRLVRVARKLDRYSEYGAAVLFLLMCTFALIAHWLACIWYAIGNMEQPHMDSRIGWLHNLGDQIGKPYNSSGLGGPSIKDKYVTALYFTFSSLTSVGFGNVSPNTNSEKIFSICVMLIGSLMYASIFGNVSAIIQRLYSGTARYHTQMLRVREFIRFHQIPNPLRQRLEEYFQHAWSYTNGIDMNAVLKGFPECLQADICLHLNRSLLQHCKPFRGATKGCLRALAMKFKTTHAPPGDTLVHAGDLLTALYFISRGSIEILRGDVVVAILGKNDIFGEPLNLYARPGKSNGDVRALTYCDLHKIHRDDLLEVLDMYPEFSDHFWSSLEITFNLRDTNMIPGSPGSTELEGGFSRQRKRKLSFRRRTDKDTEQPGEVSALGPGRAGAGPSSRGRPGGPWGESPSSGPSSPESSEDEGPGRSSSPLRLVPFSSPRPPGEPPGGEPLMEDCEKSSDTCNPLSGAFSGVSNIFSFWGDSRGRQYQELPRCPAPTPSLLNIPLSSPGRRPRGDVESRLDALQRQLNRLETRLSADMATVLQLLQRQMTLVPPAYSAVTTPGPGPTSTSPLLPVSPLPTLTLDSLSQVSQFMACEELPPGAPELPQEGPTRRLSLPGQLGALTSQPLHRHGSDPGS
T2 sequence (P11712 whole entry): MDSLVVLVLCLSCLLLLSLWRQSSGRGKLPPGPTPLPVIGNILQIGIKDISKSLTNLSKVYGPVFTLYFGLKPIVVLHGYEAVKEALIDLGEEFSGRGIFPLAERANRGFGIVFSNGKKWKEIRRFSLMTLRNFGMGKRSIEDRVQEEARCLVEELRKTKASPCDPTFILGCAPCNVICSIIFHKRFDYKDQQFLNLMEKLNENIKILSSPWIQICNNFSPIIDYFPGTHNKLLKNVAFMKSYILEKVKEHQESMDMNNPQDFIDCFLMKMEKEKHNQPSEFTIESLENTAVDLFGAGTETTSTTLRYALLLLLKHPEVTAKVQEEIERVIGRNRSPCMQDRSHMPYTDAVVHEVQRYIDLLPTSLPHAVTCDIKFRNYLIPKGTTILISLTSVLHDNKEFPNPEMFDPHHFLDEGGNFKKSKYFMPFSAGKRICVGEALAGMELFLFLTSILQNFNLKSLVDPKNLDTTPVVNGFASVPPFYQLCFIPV

Turning to `Cc1cc(-c2ccc(C#N)cc2)cc(C)c1Nc1nc(Nc2ccc(C#N)cc2)ncc1F` [A12, 4′-((2-((4-Cyanophenyl)amino)-5-fluoropyrimidin-4-yl)amino)-3′,5′-dimethyl-[1,1′-biphenyl]-4-carbonitrile], the IC50 in series [1] was over 40 µM; in series [3] it was 6.99 µM; in series [4] it was 41 ± 6.9 nM. Also, the EC50 in series [2] is 1.7 ± 0.5 nM; in series [5], 3 ± 0.5 nM; in series [7] (Human immunodeficiency virus 1, MT4, read-out: EC50 Y181C) it was 7.1 ± 1.2 nM. The half-life at 1 μmol/L in series [6] (human liver microsomes 0.5 mg/mL, 1.0 μmol/L compound) amounted to 24.3 min. In series [6] (human liver microsomes, scaled to liver), this compound gave a CLint scaled at 1 μmol/L of 51.3 mL/min/kg. For the same compound, in series [6] (human, microsomes), the microsomal CLint at 1 μmol/L turned out to be 57 µL/min/mg. Besides, the “fold higher efficacy against Y181C than toward RES056” value in series [7] (ratio of EC50 values) is reported as 6.2 fold.
